Results: patent US8952024B2, “Herbicidal pyrimidone derivatives” (E I du Pont de Nemours and Company, priority 2009, dated 2015)
Read-outs that look alike come from different tables or passages of the source.

What was measured:
Test in all cases: Test B pre-/postemergence plant response
Assay type in all cases: in vivo
[1] = test system: corn (Zea mays); details: for Corn plant response rating (crop injury, 0 = no effect, 100 = complete kill) at 31 g/ha: 31 g ai/ha, scale 0 to 100 (0 no effect, 100 complete control)
How it was run: (§1)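 Seeds sown in loam–sand blend were treated preemergence, and plants at 2–18 cm (1- to 4-leaf stage) in peat-based medium were treated postemergence; compounds were formulated in non-phytotoxic solvent with surfactant. After 13–15 days in greenhouse, response was visually rated against controls, 0 (no effect) to 100 (complete control).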

[2] = test system: downy bromegrass (Bromus tectorum); details: for pest or weed control at 31 g/ha: 31 g ai/ha, scale 0 to 100 (0 no effect, 100 complete control); for pest or weed control at 62 g/ha: 62 g ai/ha
How it was run: as §1

[3] = test system: velvetleaf (Abutilon theophrasti)
How it was run: as §1

[4] = test system: soybean (Glycine max)
How it was run: as §1

[5] = test system: yellow nutsedge (Cyperus esculentus)
How it was run: as §1

[6] = test system: Italian ryegrass (Lolium multiflorum)
How it was run: as §1

[7] = test system: woolly cupgrass (Eriochloa villosa); details: for pest or weed control at 31 g/ha: 31 g ai/ha, scale 0 to 100 (0 no effect, 100 complete control); for pest or weed control at 62 g/ha: 62 g ai/ha
How it was run: as §1

[8] = test system: lambsquarters (Chenopodium album); details: for pest or weed control at 62 g/ha: 62 g ai/ha
How it was run: as §1

[9] = test system: wheat (Triticum aestivum)
How it was run: as §1

[10] = Preemergence, 125 g ai/ha, 0 to 100 scale
[11] = Postemergence, 250 g ai/ha, scale 0 to 100

Cc1c(F)cccc1-n1c(-c2ccccc2)ncc(C(=O)C2=C(O)CCCC2=O)c1=O [Compound 47, 3-(3-fluoro-2-methylphenyl)-5-[(2-hydroxy-6-oxo-1-cyclohexen-1-yl)carbonyl]-2-phenyl-4(3H)-pyrimidinone]
Corn plant response rating [1, 10]: 0
Corn plant response rating (crop injury, 0 = no effect, 100 = complete kill) at 31 g/ha ([1]; Zea mays, post-emergence, Postemergence): 65%
Corn plant response rating (crop injury, 0 = no effect, 100 = complete kill) at 125 g/ha ([1]; Zea mays, post-emergence, Postemergence, 125 g ai/ha, visual rating after 13 to 15 days, scale 0 (no effect) to 100 (complete control)): 80%
Corn plant response rating (crop injury, 0 = no effect, 100 = complete kill) at 250 g/ha ([1]; Zea mays, pre-emergence, 250 g ai/ha, Preemergence, 0 to 100 scale): 0%
Corn plant response rating (crop injury, 0 = no effect, 100 = complete kill) at 31 g/ha ([1]; Zea mays, pre-emergence, Preemergence): 0%
Corn plant response rating (crop injury, 0 = no effect, 100 = complete kill) at 62 g/ha ([1]; Zea mays, pre-emergence, Preemergence, 62 g ai/ha, scale 0 to 100, 0 no effect, 100 complete control): 0%
pest or weed control at 31 g/ha ([2]; Bromus tectorum, post-emergence, Postemergence, read-out: Plant response rating, Bromegrass, Downy): 35%
pest or weed control at 62 g/ha ([2]; Bromus tectorum, post-emergence, Postemergence, scale 0 (no effect) to 100 (complete control), 13 to 15 days, read-out: Plant response rating, Bromegrass, Downy): 40%
pest or weed control at 125 g/ha ([2]; Bromus tectorum, post-emergence, Postemergence, 125 g ai/ha, visual rating after 13 to 15 days, scale 0 (no effect) to 100 (complete control)): 50%
pest or weed control at 250 g/ha ([2]; Bromus tectorum, pre-emergence, 250 g ai/ha, Preemergence, 0 to 100 scale, read-out: Plant response rating, Bromegrass, Downy): 10%
pest or weed control at 31 g/ha ([2]; Bromus tectorum, pre-emergence, Preemergence, read-out: Plant response rating, Bromegrass, Downy): 0%
pest or weed control at 62 g/ha ([2]; Bromus tectorum, pre-emergence, Preemergence, scale 0 to 100, 0 no effect, 100 complete control, read-out: Plant response rating, Bromegrass, Downy): 5%
Bromegrass, Downy plant response rating [2, 11]: 55
Bromegrass, Downy plant response rating [2, 10]: 5
pest or weed control at 62 g/ha ([3]; Abutilon theophrasti, post-emergence, 360 h, Postemergence, 62 g ai/ha, scale 0 (no effect) to 100 (complete control), 13 to 15 days, read-out: Plant response rating, Velvetleaf): 85%
pest or weed control at 125 g/ha ([3]; Abutilon theophrasti, post-emergence, 360 h, Postemergence, 125 g ai/ha, visual rating after 13 to 15 days, scale 0 (no effect) to 100 (complete control)): 98%
pest or weed control at 250 g/ha ([3]; Abutilon theophrasti, pre-emergence, 360 h, 250 g ai/ha, Preemergence, 0 to 100 scale, read-out: Plant response rating, Velvetleaf): 100%
pest or weed control at 31 g/ha ([3]; Abutilon theophrasti, pre-emergence, 360 h, Preemergence, 31 g ai/ha, scale 0 to 100 (0 no effect, 100 complete control), read-out: Plant response rating, Velvetleaf): 80%
Velvetleaf plant response rating [3, 10]: 90
plant injury at 62 g/ha ([4]; Glycine max, post-emergence, Postemergence, 62 g ai/ha, scale 0 (no effect) to 100 (complete control), 13 to 15 days, read-out: Plant response rating, Soybean): 95%
plant injury at 125 g/ha ([4]; Glycine max, post-emergence, Postemergence, 125 g ai/ha, visual rating after 13 to 15 days, scale 0 (no effect) to 100 (complete control)): 98%
plant injury at 250 g/ha ([4]; Glycine max, pre-emergence, 250 g ai/ha, Preemergence, 0 to 100 scale, read-out: Plant response rating, Soybean): 0%
plant injury at 31 g/ha ([4]; Glycine max, pre-emergence, Preemergence, 31 g ai/ha, scale 0 to 100 (0 no effect, 100 complete control), read-out: Plant response rating, Soybean): 0%
Soybean plant response rating [4, 10]: 0
pest or weed control at 62 g/ha ([5]; Cyperus, post-emergence, Postemergence, 62 g ai/ha, scale 0 (no effect) to 100 (complete control), 13 to 15 days, read-out: Plant response rating, Nutsedge, Yellow): 65%
pest or weed control at 125 g/ha ([5]; Cyperus, post-emergence, Postemergence, 125 g ai/ha, visual rating after 13 to 15 days, scale 0 (no effect) to 100 (complete control)): 70%
pest or weed control at 250 g/ha ([5]; Cyperus, pre-emergence, 250 g ai/ha, Preemergence, 0 to 100 scale, read-out: Plant response rating, Nutsedge, Yellow): 90%
pest or weed control at 31 g/ha ([5]; Cyperus, pre-emergence, Preemergence, 31 g ai/ha, scale 0 to 100 (0 no effect, 100 complete control), read-out: Plant response rating, Nutsedge, Yellow): 45%
Nutsedge, Yellow plant response rating [5, 10]: 80
pest or weed control at 62 g/ha ([6]; Lolium multiflorum, post-emergence, Postemergence, 62 g ai/ha, scale 0 (no effect) to 100 (complete control), 13 to 15 days, read-out: Plant response rating, Ryegrass, Italian): 30%
pest or weed control at 125 g/ha ([6]; Lolium multiflorum, post-emergence, Postemergence, 125 g ai/ha, visual rating after 13 to 15 days, scale 0 (no effect) to 100 (complete control)): 30%
pest or weed control at 250 g/ha ([6]; Lolium multiflorum, pre-emergence, 250 g ai/ha, Preemergence, 0 to 100 scale, read-out: Plant response rating, Ryegrass, Italian): 0%
pest or weed control at 31 g/ha ([6]; Lolium multiflorum, pre-emergence, Preemergence, 31 g ai/ha, scale 0 to 100 (0 no effect, 100 complete control), read-out: Plant response rating, Ryegrass, Italian): 0%
Ryegrass, Italian plant response rating [6, 10]: 0
pest or weed control at 31 g/ha ([7]; Eriochloa villosa, post-emergence, Postemergence, read-out: Plant response rating, Cupgrass, Woolly): 85%
pest or weed control at 62 g/ha ([7]; Eriochloa villosa, post-emergence, Postemergence, scale 0 (no effect) to 100 (complete control), 13 to 15 days, read-out: Plant response rating, Cupgrass, Woolly): 90%
pest or weed control at 125 g/ha ([7]; Eriochloa villosa, post-emergence, Postemergence, 125 g ai/ha, visual rating after 13 to 15 days, scale 0 (no effect) to 100 (complete control)): 90%
pest or weed control at 250 g/ha ([7]; Eriochloa villosa, pre-emergence, 250 g ai/ha, Preemergence, 0 to 100 scale, read-out: Plant response rating, Cupgrass, Woolly): 90%
pest or weed control at 31 g/ha ([7]; Eriochloa villosa, pre-emergence, Preemergence, read-out: Plant response rating, Cupgrass, Woolly): 0%
pest or weed control at 62 g/ha ([7]; Eriochloa villosa, pre-emergence, Preemergence, scale 0 to 100, 0 no effect, 100 complete control, read-out: Plant response rating, Cupgrass, Woolly): 45%
Cupgrass, Woolly plant response rating [7, 11]: 100
Cupgrass, Woolly plant response rating [7, 10]: 75
pest or weed control at 62 g/ha ([8]; Chenopodium album, post-emergence, Postemergence, scale 0 (no effect) to 100 (complete control), 13 to 15 days, read-out: Plant response rating, Lambsquarters): 98%
pest or weed control at 125 g/ha ([8]; Chenopodium album, post-emergence, Postemergence, 125 g ai/ha, visual rating after 13 to 15 days, scale 0 (no effect) to 100 (complete control)): 98%
pest or weed control at 250 g/ha ([8]; Chenopodium album, pre-emergence, 250 g ai/ha, Preemergence, 0 to 100 scale, read-out: Plant response rating, Lambsquarters): 100%
pest or weed control at 31 g/ha ([8]; Chenopodium album, pre-emergence, Preemergence, 31 g ai/ha, scale 0 to 100 (0 no effect, 100 complete control), read-out: Plant response rating, Lambsquarters): 100%
pest or weed control at 62 g/ha ([8]; Chenopodium album, pre-emergence, Preemergence, scale 0 to 100, 0 no effect, 100 complete control, read-out: Plant response rating, Lambsquarters): 100%
Lambsquarters plant response rating [8, 11]: 100
Lambsquarters plant response rating [8, 10]: 100
Wheat plant response rating [9, 10]: 0
plant injury at 62 g/ha ([9]; Triticum aestivum, post-emergence, Postemergence, 62 g ai/ha, scale 0 (no effect) to 100 (complete control), 13 to 15 days, read-out: Plant response rating, Wheat): 0%
plant injury at 125 g/ha ([9]; Triticum aestivum, post-emergence, Postemergence, 125 g ai/ha, visual rating after 13 to 15 days, scale 0 (no effect) to 100 (complete control)): 5%
